Measured values taken from ChEMBL document CHEMBL4130354 (Eur J Med Chem, 2017).

Target: T1, Prostaglandin G/H synthase 2 (Ovis aries, UniProt P79208)
T1 sequence (P79208 whole entry): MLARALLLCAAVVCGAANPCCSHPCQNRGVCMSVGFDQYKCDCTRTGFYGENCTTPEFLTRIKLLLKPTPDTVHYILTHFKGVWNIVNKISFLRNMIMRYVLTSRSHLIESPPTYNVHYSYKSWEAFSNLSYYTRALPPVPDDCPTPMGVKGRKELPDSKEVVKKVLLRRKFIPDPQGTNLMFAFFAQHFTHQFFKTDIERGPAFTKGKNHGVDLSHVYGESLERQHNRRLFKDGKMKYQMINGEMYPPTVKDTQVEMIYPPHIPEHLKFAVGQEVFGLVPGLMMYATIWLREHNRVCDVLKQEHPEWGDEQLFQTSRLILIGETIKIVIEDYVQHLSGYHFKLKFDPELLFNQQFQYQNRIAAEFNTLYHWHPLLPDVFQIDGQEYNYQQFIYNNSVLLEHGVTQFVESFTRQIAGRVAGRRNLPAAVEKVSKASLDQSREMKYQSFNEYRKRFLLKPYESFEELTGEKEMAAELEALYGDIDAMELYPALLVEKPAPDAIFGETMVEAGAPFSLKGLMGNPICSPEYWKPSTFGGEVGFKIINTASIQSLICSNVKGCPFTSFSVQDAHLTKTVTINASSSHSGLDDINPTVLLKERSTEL
Assay: Inhibition of recombinant ovine COX2 catalytic activity using arachidonic acid as substrate preincubated for 5 mins followed by substrate and hemin addition measured after 2 mins by colorimetric method

IC50 | SMILES
> 50 µM | Cc1onc(-c2ccc(Cl)o2)c1-c1ccccc1
> 50 µM | COc1ccc(-c2noc(CC(=O)O)c2-c2ccc(OC)cc2)cc1 [MOFEZOLAC]
